This passage reports TGI and GI50 results from PubChem BioAssay (NCI).

Test systems include A498 renal; SK-MEL-5 melanoma; MOLT-4 leukemia; OVCAR-5 ovarian; U251 CNS; HCT-15 colon; HCT-116 colon; MALME-3M melanoma; NCI/ADR-RES ovarian.
Common to all, as to experiment: DTP human tumour cell line panel, 48 h

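Test compounds were applied to cells in 96-well plates for 48 hours at 5 doses. GI50 is the concentration that inhibits growth by half. TGI: concentration producing complete growth inhibition.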 Bounds are passed on as bounds.

Consider `Cc1cc(N(CCC#N)CCC#N)ccc1/C=C(\NC(=O)/C=C/c1ccccc1)C(=O)N=[N+]=[N-]`, for which the TGI with A498 renal, in the assay on SK-MEL-5 melanoma, in the assay on MOLT-4 leukemia, in the assay with OVCAR-5 ovarian, in the assay with U251 CNS and with HCT-15 colon was more than 100 µM in each case. Moreover, the TGI in the assay with HCT-116 colon and in the assay with MALME-3M melanoma was more than 100 µM in each case.
With `CC(=O)C1(O)CC2(c3ccccc3)C(=O)C1(c1ccccc1)C(c1ccccc1)=C2c1ccccc1` (centres undefined), the TGI with A498 renal, in the assay on SK-MEL-5 melanoma, in the assay on MOLT-4 leukemia, in the assay with OVCAR-5 ovarian, in the assay on U251 CNS and in the assay with HCT-15 colon was more than 100 µM throughout. Besides, the TGI with HCT-116 colon and with MALME-3M melanoma was more than 100 µM in each case.
Consider `C/C(=N/NC(=O)c1ccccc1S(N)(=O)=O)C(CN1CCCCC1)C(C1=C(O)C2C=CC=CC2OC1=O)c1ccccc1` (centres undefined), for which the TGI in the assay with A498 renal, in the assay on SK-MEL-5 melanoma, with OVCAR-5 ovarian, with U251 CNS, in the assay on HCT-15 colon and in the assay on HCT-116 colon was more than 100 µM throughout. In the assay with MALME-3M melanoma, the TGI (in general, the concentration at which net growth stops) is more than 100 µM.
For the compound `Cc1ccc(S(=O)c2ccccc2[N+](=O)[O-])cc1` (centres undefined), the TGI in the assay on A498 renal was 88.1 µM; in the assay with SK-MEL-5 melanoma, more than 100 µM; with MOLT-4 leukemia, more than 100 µM; in the assay on OVCAR-5 ovarian, more than 100 µM; with U251 CNS, more than 100 µM; in the assay with HCT-15 colon, more than 100 µM. This compound also registered a TGI with MALME-3M melanoma of more than 100 µM.
Consider `CC(=O)N1C/C(=C\c2ccccc2)C(=O)/C(=C/c2ccccc2)C1`, for which the TGI in the assay on A498 renal came to 31.8 µM; with SK-MEL-5 melanoma it was 12.9 µM; in the assay on MOLT-4 leukemia it was 23 µM; in the assay with OVCAR-5 ovarian it was 35.7 µM; in the assay with U251 CNS, 29.7 µM; in the assay on HCT-15 colon, 23.7 µM. Moreover, the TGI with HCT-116 colon amounted to 5.9 µM; with MALME-3M melanoma, 40 µM.
As to `CC(=O)/C(=C\c1ccc(Cl)cc1)c1ccccc1`, the GI50 (commonly the concentration giving 50% growth inhibition) in the assay on A498 renal is 0.0309 µM; in the assay on SK-MEL-5 melanoma it was 0.0818 µM; with MOLT-4 leukemia, 0.124 µM; in the assay on U251 CNS it was 0.0842 µM; in the assay on HCT-15 colon, 0.331 µM; in the assay with MALME-3M melanoma it was 43.2 µM. The GI50 with NCI/ADR-RES ovarian is 2.07 µM. For the same compound, the TGI in the assay with A498 renal is 0.378 µM; in the assay on SK-MEL-5 melanoma, 1.14 µM; in the assay on MOLT-4 leukemia it was more than 100 µM; in the assay with OVCAR-5 ovarian it was more than 100 µM; in the assay with U251 CNS, more than 100 µM; in the assay with HCT-15 colon, more than 100 µM. The TGI in the assay with MALME-3M melanoma and with NCI/ADR-RES ovarian was more than 100 µM throughout.
For `N#CC(C(=O)CCCC(=O)Nc1ccccc1[N+](=O)[O-])c1c(Cl)cccc1Cl` (centres undefined), the TGI in the assay with A498 renal, in the assay with SK-MEL-5 melanoma, with MOLT-4 leukemia, with OVCAR-5 ovarian, in the assay with U251 CNS and with HCT-15 colon was more than 100 µM in each case. Moreover, the TGI in the assay on HCT-116 colon and in the assay on MALME-3M melanoma was more than 100 µM throughout.
For `N/N=c1/nc2n(c3ncccc13)C=CNN2`, the TGI in the assay with SK-MEL-5 melanoma, in the assay on MOLT-4 leukemia, in the assay with OVCAR-5 ovarian, in the assay on U251 CNS, in the assay with HCT-15 colon and in the assay on HCT-116 colon was more than 100 µM each time. This compound also yielded a concentration for total growth inhibition (TGI) in the assay on MALME-3M melanoma of more than 100 µM.
As to `C[C@@H]1C(=O)CC2C(C)(C)CCC[C@]2(C)[C@@]12CC[C@]1(C=COC1)O2` (some centres undefined), the total growth inhibition concentration (TGI) with MOLT-4 leukemia was 42.9 µM; with OVCAR-5 ovarian it was more than 100 µM; with HCT-15 colon, more than 100 µM; with HCT-116 colon it was more than 100 µM; in the assay with MALME-3M melanoma, 79.5 µM.
Regarding `CN(C)CC1CC/C(=C\c2ccc(Cl)c(Cl)c2)C1=O` (centres undefined), the TGI is 73.6 µM with A498 renal; more than 72.9 µM in the assay with SK-MEL-5 melanoma; 19 µM in the assay on MOLT-4 leukemia; more than 86.8 µM with OVCAR-5 ovarian; more than 56.5 µM in the assay with U251 CNS; more than 43.1 µM in the assay on HCT-15 colon. Further, the TGI was more than 61.7 µM with HCT-116 colon and more than 100 µM with MALME-3M melanoma.
`NC(N)NCCCc1cn2c(n1)C1CCCN1C(=O)C2Cc1ccccc1` (centres undefined): the TGI in the assay with A498 renal, with SK-MEL-5 melanoma, with MOLT-4 leukemia, with OVCAR-5 ovarian, with U251 CNS and in the assay with HCT-15 colon was more than 100 µM each time. The TGI in the assay with HCT-116 colon and in the assay on MALME-3M melanoma was more than 100 µM each time.
Consider `O=C([CH-]C(=O)c1ccccc1)c1ccccc1.O=C([CH-]C(=O)c1ccccc1)c1ccccc1.O=C([CH-]C(=O)c1ccccc1)c1ccccc1.[Ga+3]`, for which the GI50 in the assay on A498 renal was 56.8 µM; with SK-MEL-5 melanoma, 80.2 µM; with MOLT-4 leukemia it was 13.3 µM; in the assay on OVCAR-5 ovarian it was more than 100 µM; with U251 CNS, 23.3 µM; in the assay with HCT-116 colon, 23.4 µM. In addition, the GI50 with MALME-3M melanoma was more than 100 µM. Moreover, the TGI in the assay on A498 renal, with SK-MEL-5 melanoma, in the assay with MOLT-4 leukemia, in the assay with OVCAR-5 ovarian, in the assay on U251 CNS and with HCT-116 colon was more than 100 µM throughout. Moreover, the concentration for total growth inhibition (TGI) in the assay on MALME-3M melanoma was more than 100 µM.
On to `Cc1c(C(Cc2ccccc2N(C)C(=O)/C=C\C(=O)O)c2c[nH]c3ccccc23)c2ccccc2n1C` (centres undefined), for which the TGI with A498 renal worked out at 35.6 µM; in the assay with SK-MEL-5 melanoma, 29.8 µM; with MOLT-4 leukemia it was 53.8 µM; in the assay with OVCAR-5 ovarian, 35.6 µM; in the assay on U251 CNS, 30.3 µM; in the assay with HCT-15 colon it was 29.3 µM. The values for the TGI in the assay with HCT-116 colon and in the assay with MALME-3M melanoma were 28.4 µM and 22.4 µM, respectively.
For `O=C1NN2CC(c3ccccc3)=NN=C2c2ccccc21`, the GI50 in the assay with A498 renal was 87.5 µM; with SK-MEL-5 melanoma, 26.8 µM; in the assay with MOLT-4 leukemia, 11.1 µM; in the assay with OVCAR-5 ovarian, 37.9 µM; with U251 CNS it was 18 µM; with HCT-15 colon, 24.4 µM. Also, the GI50 was 17.4 µM in the assay with HCT-116 colon, 32.1 µM in the assay on MALME-3M melanoma and 17.5 µM in the assay with NCI/ADR-RES ovarian. For the same compound, the TGI in the assay on A498 renal is more than 100 µM; with SK-MEL-5 melanoma, 67.2 µM; in the assay with MOLT-4 leukemia, more than 100 µM; in the assay on OVCAR-5 ovarian it was more than 100 µM; with U251 CNS it was 33.9 µM; in the assay with HCT-15 colon, 86.3 µM. Moreover, the figures for the TGI with HCT-116 colon, in the assay with MALME-3M melanoma and in the assay on NCI/ADR-RES ovarian were 36.7 µM, 87.6 µM and 42.7 µM, respectively.
